{"source": "patent US20030203899A1", "about": "“Drugs for incontinence” (priority 2000, published 2003)", "test_system": "strips of urinary guinea-pig bladder contracted with carbacol", "test": "Inhibition of bladder contraction: relaxation of guinea-pig urinary bladder strips contracted with carbacol, in vitro", "assay_type": "cell-based", "conditions": "strips contracted with carbacol 10^−6 M, placebo = 100", "source_text": "The activity in the urinary incontinence of the compounds according to the present invention has been evaluated in an experimental model of inhibition of the bladder contraction.\nThe degree of the relaxation induced in the urinary bladder is a measure of the inhibitory action of the urinary incontinence of the drugs described in the present application.\nGuinea-pigs of male sex having an average weight equal to 300-500 g were sacrificed and bled. The urinary bladder was removed and prepared for determining the myorelaxing activity in vitro, according to the method described by L. Nilvenbrant, Eur. J. Pharmacol. 327,195-207, 1997.\nThe obtained tissue strips were contracted with carbacol 10^−6 M in phisiological solution and the relaxation was determined in the presence of the compounds indicated in Table 1 at the concentrations mentioned therein. The 2-(acetyloxy) benzoic acid 6-(nitroxymethyl)-2-methylpyridyl ester hydrochloride was prepared according to Example 1 of patent application PCT/EP 00/01454 (NCX 4050).", "note": "Structures can show the parent of a compound that is named as a salt."}
{"molecule": "CCN(CC)CC#CCOC(=O)C(O)(c1ccccc1)C1CCCCC1", "note": "(centres unmarked) [Oxybutynin Hydrochloride (Comp), oxybutynin hydrochloride, reference compound]", "values": [{"measurement": "Bladder strip contraction, % of placebo", "setting": "compound 10^−6 M", "result": 30, "unit": "%"}]}
{"molecule": "CC(=O)Oc1ccccc1C(=O)Oc1ccc(CO[N+](=O)[O-])nc1C.Cl", "note": "[NCX 4050, 2-(acetyloxy) benzoic acid 6-(nitroxymethyl)-2-methylpyridyl ester hydrochloride]", "values": [{"measurement": "Bladder strip contraction, % of placebo", "setting": "compound 3 × 10 − 5 M", "result": 71, "unit": "%"}]}
{"molecule": "oxybutynin nitrate salt", "values": [{"measurement": "Bladder strip contraction, % of placebo", "setting": "compound 10^−6 M", "result": 0, "unit": "%"}]}
{"molecule": "sildenafil nitrate salt", "values": [{"measurement": "Bladder strip contraction, % of placebo", "setting": "compound 3 × 10 − 5 M", "result": 31, "unit": "%"}]}
{"molecule": "CCCc1nn(C)c2c(=O)[nH]c(-c3cc(S(=O)(=O)N4CCN(C)CC4)ccc3OCC)nc12", "note": "[Sildenafil Citrate, sildenafil citrate, reference compound]", "values": [{"measurement": "Bladder strip contraction, % of placebo", "setting": "compound 3 × 10 − 5 M", "result": 52, "unit": "%"}]}
